Consider 6 compounds from ChEMBL document CHEMBL3611970, “Synthesis and evaluation of isatin-β-thiosemicarbazones as novel agents against antibiotic-resistant Gram-positive bacterial species” (2015).

What all share (type): functional
Assay [1] has as its system Staphylococcus aureus. Put plainly: Antimicrobial activity against methicillin-resistant Staphylococcus aureus 309-8 clinical isolate after 16 hrs by broth microdilution method. As to conditions: 309-8, 16 h. (In general: Broth dilution looks for growth in wells or tubes with falling amounts of substance.)
For assay [2], the system named is Staphylococcus aureus. Put plainly: Antimicrobial activity against methicillin-resistant Staphylococcus aureus 6-42 clinical isolate after 16 hrs by broth microdilution method. As to conditions: 6-42, 16 h.
For assay [3], the system named is Staphylococcus aureus. The experiment in a line: Antimicrobial activity against methicillin-resistant Staphylococcus aureus 309-6 clinical isolate after 16 hrs by broth microdilution method. To be noted: 309-6, 16 h.
A further assay relates to Bacillus spizizenii. Put plainly: Antimicrobial activity against Bacillus subtilis ATCC 6633 after 16 hrs by broth microdilution method. As to conditions: ATCC 6633, 16 h.
In the next assay the test system is Klebsiella pneumoniae. Put plainly: Antimicrobial activity against Klebsiella pneumoniae KP-249 clinical isolate after 16 hrs by broth microdilution method. To be noted: KP-249, 16 h.
Assay [4] deals with Staphylococcus aureus. Put plainly: Antimicrobial activity against methicillin-resistant Staphylococcus aureus 309-7 clinical isolate after 16 hrs by broth microdilution method. As to conditions: 309-7, 16 h.
Assay [5] deals with Enterococcus faecalis. The experiment in a line: Antimicrobial activity against vancomycin-susceptible Enterococcus faecalis after 16 hrs by broth microdilution method.
The subject of assay [6] is Staphylococcus aureus. The experiment in a line: Antimicrobial activity against methicillin-resistant Staphylococcus aureus 309-4 clinical isolate after 16 hrs by broth microdilution method. To be noted: 309-4, 16 h.
Assay [7] deals with Staphylococcus aureus. The experiment in a line: Antimicrobial activity against methicillin-resistant Staphylococcus aureus 6281 clinical isolate after 16 hrs by broth microdilution method. To be noted: Staphylococcus aureus, 6281, 16 h.
Assay [8] concerns Staphylococcus aureus. The experiment in a line: Antimicrobial activity against methicillin-resistant Staphylococcus aureus 8-21 clinical isolate after 16 hrs by broth microdilution method. As to conditions: 8-21, 16 h.
Assay [9] deals with Staphylococcus aureus. The experiment in a line: Antimicrobial activity against methicillin-resistant Staphylococcus aureus 8-24 clinical isolate after 16 hrs by broth microdilution method. As to conditions: 8-24, 16 h.
The subject of assay [10] is Staphylococcus aureus. The experiment in a line: Antimicrobial activity against methicillin-resistant Staphylococcus aureus 309-3 clinical isolate after 16 hrs by broth microdilution method. As to conditions: 309-3, 16 h.
Assay [11] relates to Enterococcus faecalis. Put plainly: Antimicrobial activity against Enterococcus faecalis VRE-309 after 16 hrs by broth microdilution method. As to conditions: VRE-309, 16 h.
The test system of assay [12] is Staphylococcus aureus. Put plainly: Antimicrobial activity against methicillin-resistant Staphylococcus aureus 309-1 clinical isolate after 16 hrs by broth microdilution method. As to conditions: 309-1, 16 h.
Another assay has as its system Pseudomonas aeruginosa. Put plainly: Antimicrobial activity against Pseudomonas aeruginosa PAO1 after 16 hrs by broth microdilution method. To be noted: PAO1, 16 h.
Assay [13] has as its system Staphylococcus aureus. Put plainly: Antimicrobial activity against methicillin-resistant Staphylococcus aureus Chaoyang clinical isolate after 16 hrs by broth microdilution method.
Assay [14] concerns Staphylococcus aureus. Put plainly: Antimicrobial activity against Staphylococcus aureus ATCC 6538 after 16 hrs by broth microdilution method. As to conditions: ATCC 6538, 16 h.

The structures appear in SMILES notation. ≈ marks a conversion by molar mass, not a printed value.

As usually defined, the MIC is the lowest concentration found to suppress growth. Read a low MIC as greater potency. Take `Cc1ccccc1NC(=S)N/N=C1\C(=O)Nc2c(I)cccc21`: the minimal inhibitory concentration (MIC) against Staphylococcus aureus [1] was 3.12 µg/mL (≈ 7.15 µM); in the assay with Staphylococcus aureus [2], 0.78 µg/mL (≈ 1.79 µM); in the assay with Staphylococcus aureus [3], 6.25 µg/mL (≈ 14.3 µM); against Bacillus spizizenii, no more than 0.78 µg/mL; in the assay on Klebsiella pneumoniae, greater than 100 µg/mL; in the assay with Staphylococcus aureus [4], 1.56 µg/mL (≈ 3.58 µM). In addition, the MIC with Enterococcus faecalis [5] amounted to 12.5 µg/mL (≈ 28.7 µM); against Staphylococcus aureus [6] it was 1.56 µg/mL (≈ 3.58 µM); against Staphylococcus aureus [7], 6.25 µg/mL (≈ 14.3 µM); against Staphylococcus aureus [8], 1.56 µg/mL (≈ 3.58 µM); with Staphylococcus aureus [9] it was 3.12 µg/mL (≈ 7.15 µM); in the assay on Staphylococcus aureus [10], 3.12 µg/mL (≈ 7.15 µM). Moreover, the MIC is 6.25 µg/mL (≈ 14.3 µM) against Enterococcus faecalis [11]; 3.12 µg/mL (≈ 7.15 µM) in the assay on Staphylococcus aureus [12]; greater than 100 µg/mL in the assay with Pseudomonas aeruginosa; 0.78 µg/mL (≈ 1.79 µM) with Staphylococcus aureus [13]; 3.12 µg/mL (≈ 7.15 µM) against Staphylococcus aureus [14].
On to `O=C1Nc2c(I)cccc2/C1=N/NC(=S)Nc1cccc(Cl)c1`, for which the minimum inhibitory concentration (MIC) in the assay with Staphylococcus aureus [1] is 6.25 µg/mL (≈ 13.7 µM); against Staphylococcus aureus [2], 3.12 µg/mL (≈ 6.83 µM); in the assay with Staphylococcus aureus [3], 6.25 µg/mL (≈ 13.7 µM); with Bacillus spizizenii it was no more than 0.78 µg/mL; against Klebsiella pneumoniae, greater than 100 µg/mL; in the assay on Staphylococcus aureus [4], 3.12 µg/mL (≈ 6.83 µM). Also, the minimum inhibitory concentration (MIC) is 12.5 µg/mL (≈ 27.4 µM) in the assay with Enterococcus faecalis [5]; 1.56 µg/mL (≈ 3.42 µM) against Staphylococcus aureus [6]; 6.25 µg/mL (≈ 13.7 µM) against Staphylococcus aureus [7]; 6.25 µg/mL (≈ 13.7 µM) in the assay with Staphylococcus aureus [8]; 3.12 µg/mL (≈ 6.83 µM) with Staphylococcus aureus [9]; 3.12 µg/mL (≈ 6.83 µM) in the assay with Staphylococcus aureus [10]. Moreover, the minimum inhibitory concentration (MIC) was 3.12 µg/mL (≈ 6.83 µM) with Enterococcus faecalis [11]; 3.12 µg/mL (≈ 6.83 µM) against Staphylococcus aureus [12]; greater than 100 µg/mL in the assay on Pseudomonas aeruginosa; 0.78 µg/mL (≈ 1.71 µM) in the assay with Staphylococcus aureus [13]; 3.12 µg/mL (≈ 6.83 µM) against Staphylococcus aureus [14].
Take `COc1cccc(NC(=S)N/N=C2\C(=O)Nc3c(I)cccc32)c1`: the MIC was 25 µg/mL (≈ 55.3 µM) against Staphylococcus aureus [1]; 3.12 µg/mL (≈ 6.9 µM) with Staphylococcus aureus [2]; 25 µg/mL (≈ 55.3 µM) in the assay with Staphylococcus aureus [3]; 1.56 µg/mL (≈ 3.45 µM) in the assay on Bacillus spizizenii; greater than 100 µg/mL in the assay on Klebsiella pneumoniae; 3.12 µg/mL (≈ 6.9 µM) against Staphylococcus aureus [4]. The MIC with Enterococcus faecalis [5] is greater than 100 µg/mL; against Staphylococcus aureus [6], 6.25 µg/mL (≈ 13.8 µM); against Staphylococcus aureus [7] it was 25 µg/mL (≈ 55.3 µM); against Staphylococcus aureus [8], 6.25 µg/mL (≈ 13.8 µM); with Staphylococcus aureus [9] it was 6.25 µg/mL (≈ 13.8 µM); with Staphylococcus aureus [10], 12.5 µg/mL (≈ 27.6 µM). The MIC was 25 µg/mL (≈ 55.3 µM) in the assay with Enterococcus faecalis [11]; 6.25 µg/mL (≈ 13.8 µM) in the assay with Staphylococcus aureus [12]; greater than 100 µg/mL in the assay with Pseudomonas aeruginosa; 1.56 µg/mL (≈ 3.45 µM) in the assay on Staphylococcus aureus [13]; greater than 100 µg/mL in the assay on Staphylococcus aureus [14].
Turning to `Cc1cccc(NC(=S)N/N=C2\C(=O)Nc3c(I)cccc32)c1`, the MIC was 1.56 µg/mL (≈ 3.58 µM) in the assay with Staphylococcus aureus [1]; 1.56 µg/mL (≈ 3.58 µM) against Staphylococcus aureus [2]; 3.12 µg/mL (≈ 7.15 µM) in the assay with Staphylococcus aureus [3]; no more than 0.78 µg/mL in the assay on Bacillus spizizenii; greater than 100 µg/mL with Klebsiella pneumoniae; 0.78 µg/mL (≈ 1.79 µM) with Staphylococcus aureus [4]. For the same compound, the minimal inhibitory concentration (MIC) was determined as 12.5 µg/mL (≈ 28.7 µM) against Enterococcus faecalis [5]; 1.56 µg/mL (≈ 3.58 µM) with Staphylococcus aureus [6]; 6.25 µg/mL (≈ 14.3 µM) against Staphylococcus aureus [7]; 1.56 µg/mL (≈ 3.58 µM) against Staphylococcus aureus [8]; 1.56 µg/mL (≈ 3.58 µM) in the assay on Staphylococcus aureus [9]; 3.12 µg/mL (≈ 7.15 µM) against Staphylococcus aureus [10]. Further, the MIC against Enterococcus faecalis [11] is 3.12 µg/mL (≈ 7.15 µM); with Staphylococcus aureus [12] it was 1.56 µg/mL (≈ 3.58 µM); against Pseudomonas aeruginosa, greater than 100 µg/mL; against Staphylococcus aureus [13], 0.78 µg/mL (≈ 1.79 µM); in the assay on Staphylococcus aureus [14], 3.12 µg/mL (≈ 7.15 µM).
As for `O=C1Nc2c(I)cccc2/C1=N/NC(=S)Nc1ccc(Cl)cc1`, the minimal inhibitory concentration (MIC) was 1.56 µg/mL (≈ 3.42 µM) with Staphylococcus aureus [1]; 1.56 µg/mL (≈ 3.42 µM) in the assay with Staphylococcus aureus [2]; 3.12 µg/mL (≈ 6.83 µM) in the assay with Staphylococcus aureus [3]; no more than 0.78 µg/mL in the assay with Bacillus spizizenii; greater than 100 µg/mL with Klebsiella pneumoniae; 0.78 µg/mL (≈ 1.71 µM) with Staphylococcus aureus [4]. Moreover, the MIC came to 6.25 µg/mL (≈ 13.7 µM) against Enterococcus faecalis [5]; 0.78 µg/mL (≈ 1.71 µM) in the assay with Staphylococcus aureus [6]; 3.12 µg/mL (≈ 6.83 µM) in the assay with Staphylococcus aureus [7]; 1.56 µg/mL (≈ 3.42 µM) with Staphylococcus aureus [8]; 1.56 µg/mL (≈ 3.42 µM) with Staphylococcus aureus [9]; 1.56 µg/mL (≈ 3.42 µM) against Staphylococcus aureus [10]. The MIC against Enterococcus faecalis [11] was 3.12 µg/mL (≈ 6.83 µM); in the assay on Staphylococcus aureus [12], 1.56 µg/mL (≈ 3.42 µM); against Pseudomonas aeruginosa it was greater than 100 µg/mL; in the assay on Staphylococcus aureus [13] it was 0.78 µg/mL (≈ 1.71 µM); in the assay with Staphylococcus aureus [14], 1.56 µg/mL (≈ 3.42 µM).
On to `O=C1Nc2c(I)cccc2/C1=N/NC(=S)Nc1ccc(Br)cc1`, for which the MIC in the assay on Staphylococcus aureus [1] was 3.12 µg/mL (≈ 6.23 µM); in the assay on Staphylococcus aureus [2], 1.56 µg/mL (≈ 3.11 µM); in the assay on Staphylococcus aureus [3], 6.25 µg/mL (≈ 12.5 µM); against Bacillus spizizenii it was no more than 0.78 µg/mL; in the assay on Klebsiella pneumoniae it was greater than 100 µg/mL; with Staphylococcus aureus [4], 1.56 µg/mL (≈ 3.11 µM). The minimal inhibitory concentration (MIC) in the assay with Enterococcus faecalis [5] amounted to 12.5 µg/mL (≈ 24.9 µM); against Staphylococcus aureus [6] it was 1.56 µg/mL (≈ 3.11 µM); in the assay on Staphylococcus aureus [7], 3.12 µg/mL (≈ 6.23 µM); against Staphylococcus aureus [8], 3.12 µg/mL (≈ 6.23 µM); with Staphylococcus aureus [9], 3.12 µg/mL (≈ 6.23 µM); in the assay with Staphylococcus aureus [10], 3.12 µg/mL (≈ 6.23 µM). Further, the minimum inhibitory concentration (MIC) is 3.12 µg/mL (≈ 6.23 µM) in the assay on Enterococcus faecalis [11]; 1.56 µg/mL (≈ 3.11 µM) with Staphylococcus aureus [12]; greater than 100 µg/mL against Pseudomonas aeruginosa; 0.78 µg/mL (≈ 1.56 µM) in the assay with Staphylococcus aureus [13]; 3.12 µg/mL (≈ 6.23 µM) against Staphylococcus aureus [14].
